Test results published in ChEMBL document CHEMBL1201862, “PubChem BioAssay data set” (2004).
Activity calls are given as the source filed them. Cut-off read from the data, not from the text of the source, for most assays here: actives have a measured EC50 and inactives only a lower limit.

Assays:
[1] = Luminescence Cell-Based Dose Response HTS to Identify Activators of Luciferase Translation or Activity in H4 […] Cells. [Related pubchem assays: 1829 (Project Summary), 1814 (Primary HTS)]; format: functional
[2] = Luminescence Cell-Based Dose Confirmation HTS to Identify Activators of 5'UTR Stem-Loop Driven Alpha-Synuclein mRNA Translation in H4 Neuroglioblastoma Cells. [Related pubchem assays: 1829 (Project Summary), 1814 (Primary HTS)]; format: functional
H4 = test: Luminescence Cell-Based Dose Response HTS to Identify Activators of 5'UTR Stem-Loop Driven Prion Protein mRNA Translation in H4 Neuroglioblastoma Cells. [Related pubchem assays: 1829 (Project Summary), 1814 (Primary HTS)]; format: functional; settings: Homo sapiens
[3] = HEp-2 cell cytotoxicity, dose response, cytotoxicity control for RSV inhibitor project, HTS (AID 2410); format: functional; settings: human respiratory syncytial virus
[4] = target: T1, Heat shock factor protein 1 (Mus musculus, UniProt P38532); test: HSF1 potentiators in luciferase reporter cells, confirmation, cell-based, NIH3T3, luminescence, dose retest (AID 435004); format: functional;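 note: stress induced by proteasome inhibitor MG132 added 30 min after compound; luciferase reporter driven by HSF1 response element in NIH3T3 cells; actives raise luminescence as potentiators of the MG132 stress response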
T1 sequence (P38532 whole entry): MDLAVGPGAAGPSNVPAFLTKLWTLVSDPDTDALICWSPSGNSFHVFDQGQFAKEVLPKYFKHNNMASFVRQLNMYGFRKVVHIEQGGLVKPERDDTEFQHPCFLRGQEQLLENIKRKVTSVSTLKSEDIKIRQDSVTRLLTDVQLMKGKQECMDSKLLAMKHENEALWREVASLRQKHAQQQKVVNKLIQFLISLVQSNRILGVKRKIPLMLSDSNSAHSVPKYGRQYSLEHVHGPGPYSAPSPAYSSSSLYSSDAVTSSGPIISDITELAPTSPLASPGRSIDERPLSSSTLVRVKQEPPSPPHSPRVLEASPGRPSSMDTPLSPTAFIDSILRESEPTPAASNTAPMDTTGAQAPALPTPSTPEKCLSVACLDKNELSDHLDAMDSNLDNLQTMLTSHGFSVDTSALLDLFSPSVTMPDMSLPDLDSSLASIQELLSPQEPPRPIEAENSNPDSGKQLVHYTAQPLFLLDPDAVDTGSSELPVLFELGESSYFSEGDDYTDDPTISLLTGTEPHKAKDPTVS

Protein RecA = target: T2, Protein RecA (Mycobacterium tuberculosis, UniProt P9WHJ3); test: Fluorescence Cell-Free Homogeneous Dose Retest to Identify Inhibitors of RecA-Intein Splicing Activity. [Related pubchem assays (depositor defined):AID2097, AID2223, AID489010, AID492950]; format: functional
T2 sequence (P9WHJ3 whole entry): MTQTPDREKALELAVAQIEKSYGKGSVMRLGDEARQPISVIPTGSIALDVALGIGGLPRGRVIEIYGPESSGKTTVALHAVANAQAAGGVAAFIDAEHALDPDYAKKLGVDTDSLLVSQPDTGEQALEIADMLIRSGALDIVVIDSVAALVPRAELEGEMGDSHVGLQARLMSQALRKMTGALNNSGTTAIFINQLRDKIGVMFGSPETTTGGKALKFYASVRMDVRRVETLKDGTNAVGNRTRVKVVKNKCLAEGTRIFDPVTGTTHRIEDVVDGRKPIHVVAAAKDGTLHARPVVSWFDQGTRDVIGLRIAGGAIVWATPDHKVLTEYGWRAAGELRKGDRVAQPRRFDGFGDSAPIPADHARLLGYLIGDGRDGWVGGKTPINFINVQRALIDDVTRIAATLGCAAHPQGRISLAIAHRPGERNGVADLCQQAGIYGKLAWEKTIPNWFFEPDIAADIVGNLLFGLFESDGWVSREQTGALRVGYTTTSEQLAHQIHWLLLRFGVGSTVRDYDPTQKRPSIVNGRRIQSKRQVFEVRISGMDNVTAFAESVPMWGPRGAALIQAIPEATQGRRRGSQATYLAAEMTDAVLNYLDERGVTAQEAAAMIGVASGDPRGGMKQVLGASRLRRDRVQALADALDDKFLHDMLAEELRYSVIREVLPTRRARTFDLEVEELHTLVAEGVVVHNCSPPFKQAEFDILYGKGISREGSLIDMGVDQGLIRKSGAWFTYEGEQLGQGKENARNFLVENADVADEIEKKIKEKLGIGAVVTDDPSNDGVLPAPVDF

[5] = target: T3, Replicative DNA helicase DnaB (Mycobacterium tuberculosis, UniProt P9WMR3); test: DnaB intein splicing inhibitors, dose response, biochemical, cell-free fluorescence (AID 449749); format: functional
T3 sequence (P9WMR3 whole entry): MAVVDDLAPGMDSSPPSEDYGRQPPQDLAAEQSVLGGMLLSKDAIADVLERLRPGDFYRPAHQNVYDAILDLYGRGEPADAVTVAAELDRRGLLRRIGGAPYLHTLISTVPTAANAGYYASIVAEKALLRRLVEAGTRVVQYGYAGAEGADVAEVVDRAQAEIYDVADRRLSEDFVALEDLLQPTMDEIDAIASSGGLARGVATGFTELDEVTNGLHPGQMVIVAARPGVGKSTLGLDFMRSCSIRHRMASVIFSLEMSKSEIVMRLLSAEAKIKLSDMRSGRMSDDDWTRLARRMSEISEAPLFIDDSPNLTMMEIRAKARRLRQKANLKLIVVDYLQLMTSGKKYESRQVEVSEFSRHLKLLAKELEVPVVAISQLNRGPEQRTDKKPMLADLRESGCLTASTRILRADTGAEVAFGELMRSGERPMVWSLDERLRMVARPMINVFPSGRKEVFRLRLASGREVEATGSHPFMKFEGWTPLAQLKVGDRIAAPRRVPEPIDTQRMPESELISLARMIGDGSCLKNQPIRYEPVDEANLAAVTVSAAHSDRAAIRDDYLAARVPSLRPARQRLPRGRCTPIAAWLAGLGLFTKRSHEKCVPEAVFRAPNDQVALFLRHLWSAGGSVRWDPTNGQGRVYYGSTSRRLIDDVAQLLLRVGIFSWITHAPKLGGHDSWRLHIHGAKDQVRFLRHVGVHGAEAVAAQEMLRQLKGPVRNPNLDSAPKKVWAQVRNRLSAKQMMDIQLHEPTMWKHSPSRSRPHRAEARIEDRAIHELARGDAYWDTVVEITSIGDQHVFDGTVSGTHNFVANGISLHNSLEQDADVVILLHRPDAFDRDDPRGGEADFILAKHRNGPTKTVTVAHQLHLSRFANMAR

INS1 = test: beta cell apoptosis inhibitors, cytokine rescue, dose response, luminescence, retest (AID 449756); format: functional, cell-based; settings: Rattus norvegicus, INS1;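 note: cell death triggered by IL-1 beta plus TNF-alpha plus IFN-gamma mixture; protective hits raise ATP signal compared with cytokine alone wells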
[6] = cytotoxicity toward NIH3T3 fibroblasts, dose response, counter-screen, cell-based, ATP luminescence, mouse fibroblasts (AID 2010); format: functional;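 note: cells exposed to compound for about 90 hours before reading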
[7] = inhibitors of intracellular T. cruzi replication, confirmation, NIH3T3 host cells, beta-gal luminescence (AID 2044); format: functional, cell-based;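 note: intracellular parasites grown in NIH/3T3 mouse fibroblasts as host cells; luminescent beta-galactosidase reporter signal from transgenic T. cruzi replicating inside host cells; inhibitors lower the luminescence signal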
Streptokinase A = target: T4, Streptokinase A (Streptococcus pyogenes serotype M1, UniProt P10520); test: S. pyogenes streptokinase expression inhibitors, potency, dose response, plasminogen activation absorbance, OD405 (AID 1914); format: functional, Streptococcus pyogenes M1 GAS;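 note: secreted streptokinase activity via plasminogen activation per viability signal from cell pellet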
T4 sequence (P10520 whole entry): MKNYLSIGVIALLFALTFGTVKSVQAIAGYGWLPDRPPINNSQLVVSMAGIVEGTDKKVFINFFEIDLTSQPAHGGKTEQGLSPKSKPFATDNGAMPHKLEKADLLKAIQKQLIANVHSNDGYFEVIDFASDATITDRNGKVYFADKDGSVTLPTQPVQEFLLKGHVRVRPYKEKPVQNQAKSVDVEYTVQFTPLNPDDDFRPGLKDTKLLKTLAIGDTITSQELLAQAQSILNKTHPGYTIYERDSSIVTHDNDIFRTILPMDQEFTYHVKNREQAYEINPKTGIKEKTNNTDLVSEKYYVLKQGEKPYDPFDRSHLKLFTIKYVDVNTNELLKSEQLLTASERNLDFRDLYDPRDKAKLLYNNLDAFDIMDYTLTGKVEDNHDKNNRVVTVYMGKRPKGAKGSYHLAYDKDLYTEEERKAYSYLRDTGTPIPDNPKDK

[8] = system: Streptococcus sp. 'group A'; test: growth inhibition of control SK(-) GAS strain, dose response, counter-screen for streptokinase expression inhibitor project, luminescence, kanamycin, BacTiterGlo, confirmation (AID 1900); format: functional, organism-based
Streptococcus = test: Group A Streptococcus viability loss, dose response, counter-screen for streptokinase expression inhibitor project, luminescence, BacTiterGlo (AID 1915); format: functional, organism-based;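 note: potency for reduction of bacterial viability or growth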

Row | Compound | EC50 [1] | EC50 [2] | EC50 (H4) | EC50 (Protein RecA) | AC50 [5] | further results
1 | CCOC(=O)Nc1ccc2c(C)cc(=O)oc2c1 | 30.9 µM (active) | 13 µM (active) | 12.9 µM (active) |  |  | 
2 | Cc1ccccc1C1c2[nH]c3ccccc3c2CCN1C(=O)c1ccc(=O)n(C)n1 (stereo unspecified) |  |  |  |  |  | CC50 [3]: 20.4 µM (active)
3 | Cc1cc(C(=O)CN2C(=O)NC3(CCCCC3)C2=O)c(C)n1Cc1ccco1 |  |  |  |  |  | EC50 [4]: 44 µM (active)
4 | Cc1cccc(C(=O)NC2CCCCCCC2)c1 | 11.9 µM (active) | 29.8 µM (active) | > 120 µM (not active) |  |  | 
5 | N#Cc1nc(N)nc(N(c2ccccc2)c2ccccc2)n1 |  |  |  | 66.6 µM (active) | 39.8 µM (active) | 
6 | Cc1nc(OCc2ccccc2)c2sc3nc4c(cc3c2n1)COC(C)(C)C4 | 7.5 µM (active) | 9.71 µM (active) | > 120 µM (not active) |  |  | 
7 | CC1=C(CC(=O)c2ccc(Cl)cc2)C(=O)c2ccccc2C1=O |  |  |  | 1.24 µM (active) | 7.84 µM (active) | AC50 (INS1): 8.26 µM (active)
8 | NC(=O)c1sc2nc(N3CCOCC3)c3c(c2c1N)CCCC3 |  |  |  |  |  | CC50 [3]: > 50 µM (active)
9 | Cc1nc2cc(NC(=O)N3CCC(c4ccccc4)C3)ccc2n1C (stereo unspecified) | 17.7 µM (active) | 46.9 µM (active) | 27.4 µM (active) |  |  | 
10 | Cc1ccc(/C=N/N2CCN(Cc3ccccc3)CC2)s1 | 11.9 µM (active) | 21 µM (active) | > 120 µM (not active) |  |  | 
11 | Oc1c2c(nn1-c1ccccc1)CCSC2 |  |  |  | 13.7 µM (active) | 12 µM (active) | 
12 | CCOC(=O)c1c(C)n(C)c2ccc(OCC(O)Cn3c(C)nc4ccccc43)cc12 (stereo unspecified) |  |  |  |  |  | CC50 [3]: 19.4 µM (active)
13 | Cc1noc(C)c1COC(=O)c1cc2ccccc2cc1O |  |  |  |  |  | CC50 [3]: 43.1 µM (active)
14 | O=C(CCc1nnc2n(Cc3ccc(F)cc3)c(=O)c3ccccc3n12)N1CCN(c2ccccn2)CC1 |  |  |  |  |  | CC50 [3]: 37.4 µM (active)
15 | CN1CCc2nc(SC(C(=O)O)c3ccccc3)c(C#N)c(-c3cccs3)c2C1 (stereo unspecified) |  |  |  | 12.3 µM (active) | > 380 µM (inactive) | EC50 [6]: > 30 µM (not active); EC50 [7]: 1.2 µM (active)
16 | CC1CCc2[nH]c3ccc(C(=O)N(C)CC(=O)Nc4ccccc4Br)cc3c2C1 (stereo unspecified) |  |  |  |  |  | CC50 [3]: 22 µM (active)

Row | Compound | EC50 [1] | EC50 [2] | EC50 (H4) | EC50 (Protein RecA) | AC50 [5] | further results
17 | Nn1c(SCc2ccccc2F)nnc1-c1cccnc1 | 36.8 µM (active) | 64.2 µM (active) | 33.4 µM (active) |  |  | 
18 | CC(C)(C)c1[nH]nc2c1C(c1ccco1)C(C#N)=C(N)O2 (stereo unspecified) |  |  |  | 1.21 µM (active) | 3.88 µM (active) | 
19 | COc1ccc(S(=O)(=O)N2CCN(c3nc(-c4cccnc4)nc4ccccc34)CC2)cc1 |  |  |  |  |  | CC50 [3]: 30.4 µM (active)
20 | COc1ccc(Br)cc1[C@H]1[C@@H]2C=CCC[C@@]2(C)C(=O)N1Cc1ccccc1 |  |  |  | 26.7 µM (active) | > 380 µM (inactive) | EC50 (Streptokinase A): 37.6 µM (active); EC50 [8]: 7.12 µM (active); EC50 (Streptococcus): 11.1 µM (active)
21 | CC(=O)Cn1ncc(N2CCCCC2)c(Cl)c1=O | 11.5 µM (active) | 24.6 µM (active) | 23.5 µM (active) |  |  | 
22 | CN1CCN(C2=C(Cl)C(=O)N(C3CCCCC3)C2=O)CC1 | 19.8 µM (active) | 8.46 µM (active) | > 120 µM (not active) |  |  | 
23 | COc1cccc(-c2cc(O)[nH]n2)c1 |  |  |  | 0.757 µM (active) | 2.51 µM (active) | 
24 | Cc1ccccc1C1=NC(c2ccc(F)cc2F)ON1 (stereo unspecified) | 8.1 µM (active) | 33.6 µM (active) | 33.8 µM (active) |  |  | 
25 | CC1(C)CC(CCNC(=O)CCl)(c2ccccc2)CCO1 (stereo unspecified) |  |  |  | 14.5 µM (active) | 179 µM (active) | 
26 | CC1Nc2ncnc(N3CCc4ccccc4C3)c2N(Cc2ccc(Cl)cc2)C1=O (stereo unspecified) |  |  |  | 30.9 µM (active) | > 380 µM (inactive) | 
27 | COc1ccccc1NS(=O)(=O)c1ccc(-c2cc(C)no2)s1 | > 30 µM (not active) | > 120 µM (not active) | > 120 µM (not active) |  |  | 
28 | c1ccc(-c2cc3n(c2)CCc2ccccc2-3)cc1 | 15.9 µM (active) | 10.7 µM (active) | 22.7 µM (active) |  |  | 
29 | Cc1n[nH]c2c1C(c1ccsc1)C(C#N)=C(N)O2 (stereo unspecified) |  |  |  | 4.1 µM (active) | 11 µM (active) | 
30 | O=C(NNC(=S)Nc1ccccc1)c1cccs1 | 12.9 µM (active) | 11.2 µM (active) | 75.4 µM (active) |  |  | 
31 | O=C(NCCC1=CCCCC1)c1cnccn1 | 4.95 µM (active) | 8.37 µM (active) | 11 µM (active) |  |  | 
32 | COc1ccc(OCc2cc(C(=O)N(C)Cc3cc(C4CC4)[nH]n3)no2)c(Cl)c1 | 69.5 µM (active) | 28.2 µM (active) | 37.8 µM (active) |  |  | 
